# Assay results reported in US11214594B2, “Antimicrobial peptide having synergistic antibacterial effect with antibiotics on multidrug resistant bacteria, and use thereof” (priority 2016, dated 2022).
# Values joined by “and” are separate entries in the source; they are usually repeats but may differ in a detail not shown here. Equal values may be shown once. Read-outs that look alike come from different tables or passages of the source. Where a SMILES comes first, the peptide text is derived from it.
# Legend:
# [1] = test system: A. baumannii; test: MIC of antibiotic during combined treatment with antimicrobial peptide; type: cell-based, Acinetobacter baumannii; conditions: A. baumannii
# Outline: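 Antibiotic diluted in MH medium, dispensed per well with peptide; setup repeated with roles reversed; MIC read per combination.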
# [2] = test system: E. coli; type: cell-based, Escherichia coli; conditions: E. coli
# Outline: (§1)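 Antibiotic MIC came from antibiotic dilutions added to bacteria (2×10^6 CFU/ml, MH medium) already combined with peptide serially diluted 2:1 from its own MIC. Swapping the roles of the two agents gave the peptide MIC.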
# [3] = test system: MDREC 1229; type: cell-based, Escherichia coli
# Outline: as §1
# [4] = test system: A. baumannii; test: MIC of antimicrobial peptide during combined treatment with antibiotic; type: cell-based, Acinetobacter baumannii
# Outline: as §1
# [5] = test system: MDRAB 12035; test: as above; type: cell-based, Acinetobacter baumannii
# Outline: as §1
# [6] = combined with peptide at 8 μg/ml
# [7] = combined with peptide at 16 μg/ml
# [8] = combined with peptide at 32 μg/ml
# [9] = combined with peptide at 64 μg/ml
# [10] = with Erythromycin […] (Conc./MIC 1)
# [11] = linezolid 64 μg/ml (Conc./MIC 1/8)
# [12] = linezolid 512 μg/ml (Conc./MIC 1)
# [13] = vancomycin 512 μg/ml (Conc./MIC 1/2)
# [14] = vancomycin 1024 μg/ml (Conc./MIC 1)
# [15] = erythromycin 4 μg/ml (Conc./MIC 1/8)
# [16] = erythromycin 8 μg/ml (Conc./MIC 1/4)
# [17] = erythromycin 16 μg/ml (Conc./MIC 1/2)
# [18] = erythromycin 32 μg/ml (Conc./MIC 1)
# [19] = linezolid 32 μg/ml (Conc./MIC 1/8)
# [20] = linezolid 64 μg/ml (Conc./MIC 1/4)
structure (smiles),measurement,setting,value
"CC[C@H](C)[C@H](NC(=O)[C@H](CCCCN)NC(=O)[C@H](Cc1c[nH]c2ccccc12)NC(=O)[C@@H](N)CCCNC(=N)N)C(=O)N[C@@H](Cc1ccccc1)C(=O)N[C@@H](CCCCN)C(=O)N[C@@H](CCCCN)C(=O)N[C@H](C(=O)N1CCC[C@H]1C(=O)N[C@@H](CCCCN)C(=O)N[C@@H](Cc1ccccc1)C(=O)N[C@@H](CC(C)C)C(=O)N[C@@H](Cc1c[nH]cn1)C(=O)N[C@@H](CO)C(=O)N[C@@H](C)C(=O)N[C@@H](CCCCN)C(=O)N[C@@H](CCCCN)C(=O)N[C@@H](Cc1ccccc1)C(N)=O)[C@@H](C)CC [PapMA-1, RWK IFK KIP KFL HSA KKF-NH2] (H-RWKIFKKIPKFLHSAKKF-NH2; N-terminus assumed)","Antibiotic MIC, Erythromycin",[1]; [6],0.5 µg/mL
same,"Antibiotic MIC, Linezolid",[1]; [6],8 µg/mL
same,"Antibiotic MIC, Vancomycin",[1]; [6],8 µg/mL
same,"Antibiotic MIC, Erythromycin",[1]; [7],0.125 µg/mL
same,"Antibiotic MIC, Linezolid",[1]; [7],4 µg/mL
same,"Antibiotic MIC, Vancomycin",[1]; [7],8 µg/mL
same,"Antibiotic MIC, Erythromycin",[1]; [8],0.0625 µg/mL
same,"Antibiotic MIC, Linezolid",[1]; [8],4 µg/mL
same,"Antibiotic MIC, Vancomycin",[1]; [8],2 µg/mL
same,"Antibiotic MIC, Erythromycin",[1]; [9],0 µg/mL
same,"Antibiotic MIC, Linezolid",[1]; [9],0 µg/mL
same,"Antibiotic MIC, Vancomycin",[1]; [9],0 µg/mL
same,Peptide MIC,[2]; [10],0 µg/mL
same,Peptide MIC,[2]; with Linezolid […] (Conc./MIC 1),0 µg/mL
same,Peptide MIC,[2]; with Vancomycin 1024 μg/ml (Conc./MIC 1),0 µg/mL
same,Peptide MIC during treatment with antibiotic,[3]; erythromycin 32 μg/ml (Conc./MIC 1/8),2 µg/mL
same,Peptide MIC during treatment with antibiotic,[3]; erythromycin 64 μg/ml (Conc./MIC 1/4),1 µg/mL and 2 µg/mL
same,Peptide MIC during treatment with antibiotic,[3]; erythromycin […] (Conc./MIC 1),0 µg/mL
same,Peptide MIC during treatment with antibiotic,[3]; erythromycin […] (Conc./MIC 1/2),1 µg/mL
same,Peptide MIC during treatment with antibiotic,[3]; [11],2 µg/mL and 4 µg/mL
same,Peptide MIC during treatment with antibiotic,[3]; [12],0 µg/mL
same,Peptide MIC during treatment with antibiotic,[3]; linezolid […] (Conc./MIC 1/2),1 µg/mL
same,Peptide MIC during treatment with antibiotic,[3]; linezolid […] (Conc./MIC 1/4),2 µg/mL
same,Peptide MIC during treatment with antibiotic,[3]; [13],2 µg/mL
same,Peptide MIC during treatment with antibiotic,[3]; [14],1 µg/mL
same,Peptide MIC during treatment with antibiotic,[3]; vancomycin […] (Conc./MIC 1/4),4 µg/mL
same,Peptide MIC during treatment with antibiotic,[3]; vancomycin […] (Conc./MIC 1/8),8 µg/mL
same,Peptide MIC,[3]; [10],0 µg/mL
same,Peptide MIC,[3]; with Linezolid 512 μg/ml (Conc./MIC 1),0 µg/mL
same,Peptide MIC during treatment with antibiotic,[4]; [15],4 µg/mL
same,Peptide MIC during treatment with erythromycin,[4]; [15],4 µg/mL
same,Peptide MIC during treatment with antibiotic,[4]; [16],4 µg/mL
same,Peptide MIC during treatment with erythromycin,[4]; [16],4 µg/mL
same,Peptide MIC during treatment with antibiotic,[4]; [17],2 µg/mL
same,Peptide MIC during treatment with erythromycin,[4]; [17],2 µg/mL
same,Peptide MIC during treatment with antibiotic,[4]; [18],0 µg/mL
same,Peptide MIC during treatment with erythromycin,[4]; [18],0 µg/mL
same,Peptide MIC during treatment with antibiotic,[4]; [19],4 µg/mL
same,Peptide MIC during treatment with linezolid,[4]; [19],4 µg/mL
same,Peptide MIC during treatment with antibiotic,[4]; [20],4 µg/mL
same,Peptide MIC during treatment with linezolid,[4]; [20],4 µg/mL
same,Peptide MIC during treatment with antibiotic,[4]; linezolid […] (Conc./MIC 1),0 µg/mL
same,Peptide MIC during treatment with linezolid,[4]; linezolid […] (Conc./MIC 1),0 µg/mL
same,Peptide MIC during treatment with antibiotic,[4]; linezolid […] (Conc./MIC 1/2),0.5 µg/mL
same,Peptide MIC during treatment with linezolid,[4]; linezolid […] (Conc./MIC 1/2),0.5 µg/mL
same,Peptide MIC during treatment with antibiotic,[4]; [13],0.25 µg/mL
same,Peptide MIC during treatment with vancomycin,[4]; [13],0.25 µg/mL
same,Peptide MIC during treatment with antibiotic,[4]; [14],0 µg/mL
same,Peptide MIC during treatment with vancomycin,[4]; [14],0 µg/mL
same,Peptide MIC during treatment with antibiotic,[4]; vancomycin […] (Conc./MIC 1/4),0.5 µg/mL
same,Peptide MIC during treatment with vancomycin,[4]; vancomycin […] (Conc./MIC 1/4),0.5 µg/mL
same,Peptide MIC during treatment with antibiotic,[4]; vancomycin […] (Conc./MIC 1/8),4 µg/mL
same,Peptide MIC during treatment with vancomycin,[4]; vancomycin […] (Conc./MIC 1/8),4 µg/mL
same,Peptide MIC during treatment with erythromycin,[5]; [15],4 µg/mL
same,MIC of peptide in combination as fraction of the MIC of the peptide alone,[5]; erythromycin 8 μg/ml,1/16
same,MIC value of peptide during combined treatment with erythromycin,[5]; erythromycin 8 μg/ml (1/4 of its MIC),4 µg/mL
same,Peptide MIC during treatment with erythromycin,[5]; [16],4 µg/mL
same,Peptide MIC during treatment with erythromycin,[5]; [17],4 µg/mL
same,Peptide MIC during treatment with erythromycin,[5]; [18],0 µg/mL
same,Peptide MIC during treatment with linezolid,[5]; [11],4 µg/mL
same,Peptide MIC during treatment with linezolid,[5]; [12],0 µg/mL
same,Peptide MIC during treatment with linezolid,[5]; linezolid […] (Conc./MIC 1/2),1 µg/mL
same,Peptide MIC during treatment with linezolid,[5]; linezolid […] (Conc./MIC 1/4),4 µg/mL
same,Peptide MIC during treatment with vancomycin,[5]; [13],2 µg/mL
same,Peptide MIC during treatment with vancomycin,[5]; [14],1 µg/mL
same,Peptide MIC during treatment with vancomycin,[5]; vancomycin […] (Conc./MIC 1/4),4 µg/mL
same,Peptide MIC during treatment with vancomycin,[5]; vancomycin […] (Conc./MIC 1/8),4 µg/mL
